The values below are quoted from earlier work in article PMC8435859 (Frontiers in Cellular and Infection Microbiology, 2021).

≈ marks a conversion by molar mass, not a printed value. Structures can show the parent of a compound that is named as a salt.

One data set relates to GABA uptake. Also on record: method as in Johnston G A R et al., Nature. As to conditions: ref Johnston G A R et al., Nature; read-out: IC50, inhibition of GABA uptake; cited from earlier work.
Another data set has as its system MCF-7. On the set-up: method as in ref Sales SM et al., Biomedicine & Pharmacotherapy, 2018, 103:1577-1584. As to conditions: one value printed for MCF-7 & MDA-MB-231; ref Sales SM et al., Biomedicine & Pharmacotherapy, 2018, 103:1577-1584; read-out: IC50, decreased MCF-7 survival; cited from earlier work.
In the next data set the test system is MDA-MB-231. Also on record: method as in ref Sales SM et al., Biomedicine & Pharmacotherapy, 2018, 103:1577-1584. As to conditions: one value printed for MCF-7 & MDA-MB-231; ref Sales SM et al., Biomedicine & Pharmacotherapy, 2018, 103:1577-1584; read-out: IC50, decreased MDA-MB-231 survival; cited from earlier work.
The next data set relates to H. pylori. On the set-up: method as in ref Sales SM et al., Biomedicine & Pharmacotherapy, 2018, 103:1577-1584. Particulars: ref Sales SM et al., Biomedicine & Pharmacotherapy, 2018, 103:1577-1584; cited from earlier work.
The subject of another data set is CYP2B6. Also on record: method as in ref Cheng SenSung et al., Journal of Agricultural & Food Chemistry, 2012, 60(1):124-8. Particulars: ref Cheng SenSung et al., Journal of Agricultural & Food Chemistry, 2012, 60(1):124-8; read-out: Ki, CYP2B6 inhibition; cited from earlier work.
The subject of a further data set is CYP3A4. Also on record: method as in ref Cheng SenSung et al., Journal of Agricultural & Food Chemistry, 2012, 60(1):124-8. Particulars: ref Cheng SenSung et al., Journal of Agricultural & Food Chemistry, 2012, 60(1):124-8; read-out: Ki, CYP3A4 inhibition; cited from earlier work.
The test system of a further data set is IL-1β. Also on record: method as in ref Singh B, et al. Natural Product Research, 2013, 27(23):2227-2230. As to conditions: anti-inflammatory activity; ref Singh B, et al. Natural Product Research, 2013, 27(23):2227-2230.; read-out: IC50, inhibition of IL-1β; cited from earlier work.
The test system of another data set is TNF-α. Also on record: method as in ref Singh B, et al. Natural Product Research, 2013, 27(23):2227-2230. As to conditions: anti-inflammatory activity; ref Singh B, et al. Natural Product Research, 2013, 27(23):2227-2230.; read-out: IC50, inhibition of TNF-α; cited from earlier work.
A further data set concerns EV71. Particulars: ref Choi HJ et al., Biomol Ther (Seoul). 2016 Sep 1;24(5):552-8; cited from earlier work.
In another data set the test system is PGE2 production. On the set-up: method as in Kim HJ, et al. Arch Pharm Res. 2016 Feb;39(2):231-239. As to conditions: ref Kim HJ, et al. Arch Pharm Res. 2016 Feb;39(2):231-239.; read-out: IC50, inhibitory effect on PGE2 production; cited from earlier work.

As for `O=C(O)C1=CCCNC1` [Guvacine hydrochloride], in the data set with GABA uptake, the IC50 is 10 µM.
As to `CCCCCCCCOC(=O)c1cc(O)c(O)c(O)c1` [Octyl gallate], the IC50 with MCF-7 and in the data set on MDA-MB-231 was 40 µM in each case. Further, the “minimum inhibitory concentration (MIC) against H. pylori” value in the data set with H. pylori was 125 µg/mL (≈ 443 µM).
In the case of `C[C@@H]1CC[C@H]2C(C)(C)[C@H]3C[C@@]12CC[C@@]3(C)O` [Cedrol], the Ki was 0.9 µM with CYP2B6 and 3.4 µM in the data set on CYP3A4.
As for `COc1cc2oc(-c3ccccc3)cc(=O)c2c(O)c1OC` [MOSLOFLAVONE], the figures for the half-inhibitory concentration (IC50) in the data set with IL-1β and in the data set with TNF-α were 7.8 µM and 0.71 µM, respectively.
Regarding `O=c1cc(-c2ccccc2)oc2c(O)c(O)cc(O)c12` [Norwogonin], the “IC50, antiviral activity against Enterovirus 71” value with EV71 is recorded as “Norwogonin, isolated from Scutellaria baicalensis Georgi, possesses antiviral activity against Enterovirus 71 (IC50: 31.83 μg/ml)”.
Take `CC(C)=CCc1cc2ccc(=O)oc2cc1O` [7-demethylsuberosin]: the IC50 in the data set with PGE2 production was 9.42 µM.

As usually defined, the IC50 is the point on the concentration scale where inhibition reaches its midpoint. For orientation: Ki means a dissociation constant, usually derived from enzyme kinetics or from competition with a known ligand.
